Laboratory results published in patent publication US20100168250A1, “USE OF CYCLOHEXANEHEXOL DERIVATIVES IN THE TREATMENT OF OCULAR DISEASE” (priority 2007, published 2010).

Tested on: ARPE-19 cells
Test: Effect of AZD103 on Aβ1-42-induced VEGF secretion in ARPE-19 cells (VEGF ELISA)
Format: cell-based, human
Text: The potential of AZD-103 to neutralize the effects of Aβ on VEGF expression by RPE cells was investigated using the following materials and methods.
Materials: Human VEGF Duoset, 2nd Generation was obtained from R & D Systems [# DY293B]. 3,3′,5,5′-Tetramethylbenzidine Liquid Substrate (TMB) was obtained from Sigma [# S8865]. The stop solution for TMB was also obtained from Sigma [# S5814]. Tween-20 was obtained from Fisher [# BP 337-500]; Probumin was obtained from Millipore [#82-045-1]; and, 10× Phosphate Buffered Saline (PBS) was obtained from Roche [#11666789001]. […] The Media was then assessed for levels of VEGF by ELISA (R&D Systems, Minneapolis, Minn.) VEGF ELISA: Conditioned media collected from cell cultures grown in the presence or absence of Aβ1-42 and AZD103 were tested for vascular endothelial growth factor (VEGF) expression using a human VEGF duoset ELISA development kit as described by the manufacturer (R &D systems). […] The reaction was stopped and the colour development was read spectrophotometrically at a wavelength of 450 nm.

For `O[C@H]1[C@H](O)[C@@H](O)[C@H](O)[C@@H](O)[C@@H]1O` [AZD103], the “amount of secreted VEGF” value (ARPE-19 cells (1.5×10^4), Aβ1-42 oligomers pre-incubated 2 hours at 37° C. with AZD103 at weight ratios 1:0.5, 1:1, 1:2, 24 Hr treatment, serum-free medium, ELISA) was “effective towards reducing the amount of secreted VEGF” and the “VEGF expression by RPE cells in presence of Aβ, compared to basal levels (absence of Aβ)” value (ARPE-19 cells, expressed as comparison to Normal ARPE-19 cells that received no treatment) was “returned to basal levels”.
